# Measurements as given in PMC5501740 (Clinical and experimental allergy : journal of the British …, 2017).
# Residues, ends and D or L forms follow the SMILES beside them. *: point of attachment. AMC = Cc1cc(=O)oc2cc(N*)ccc12; Boc = CC(C)(C)OC(=O)*
# Tests used:
# Assay in all cases: fluorogenic AMC release, Michaelis-Menten fit
# Type in all cases: biochemical, Blattella germanica
# Conditions in all cases: read-out: Substrate Km (μM) / QAR / Trypsin; 50 mM Tris-HCl pH 8, 0.2% NP40, 1.5 mM CaCl2
# E3 = tested on: E3
# E1 = tested on: E1
# E2 = tested on: E2
structure (smiles),measurement,setting,value
"Cc1cc(=O)oc2cc(NC(=O)[C@H](CCCNC(=N)N)NC(=O)[C@H](C)NC(=O)[C@H](CCC(N)=O)NC(=O)OC(C)(C)C)ccc12 [QAR, Boc-Glutamine-Alanine-Arginine (QAR)-aminomethylcoumarin] (Boc-Gln-Ala-Arg-{AMC})",Km,E3,3 ± 0.3 µM
same,Km,E1,3 ± 0.8 µM
same,Km,E2,2 ± 0.3 µM
